Results: ChEMBL document CHEMBL1131683, “Preparation of pyrrolidine and isoxazolidine benzamidines as potent inhibitors of coagulation factor Xa” (Bioorg Med Chem Lett, 1999)

Key:
[1] = Half life value in rabbits; assay type: ADME, Oryctolagus cuniculus; conditions: rabbit, in vivo
[2] = Clearance rate in rabbits; assay type: ADME, organism-based, Oryctolagus cuniculus; conditions: rabbit, in vivo
Coagulation factor X = Coagulation factor X (Homo sapiens, UniProt P00742); assay: Binding affinity against Coagulation factor X in an enzyme inhibition assay.
Serine protease 1 = Serine protease 1 (Homo sapiens, UniProt P07477); assay: Binding affinity against trypsin in an enzyme inhibition assay.
Oryctolagus cuniculus = species: Oryctolagus cuniculus; assay: Compound was tested for its effect in rabbit arterio-venous (A-V) shunt thrombosis model and the inhibitory dose was reported; assay type: functional

Coagulation factor X, sequence (P00742 41-179 limits assumed): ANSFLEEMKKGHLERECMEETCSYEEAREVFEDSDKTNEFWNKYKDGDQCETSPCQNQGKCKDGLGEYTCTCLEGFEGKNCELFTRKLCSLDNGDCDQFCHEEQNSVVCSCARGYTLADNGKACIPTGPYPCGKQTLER
Coagulation factor X, sequence (P00742 235-488 limits assumed): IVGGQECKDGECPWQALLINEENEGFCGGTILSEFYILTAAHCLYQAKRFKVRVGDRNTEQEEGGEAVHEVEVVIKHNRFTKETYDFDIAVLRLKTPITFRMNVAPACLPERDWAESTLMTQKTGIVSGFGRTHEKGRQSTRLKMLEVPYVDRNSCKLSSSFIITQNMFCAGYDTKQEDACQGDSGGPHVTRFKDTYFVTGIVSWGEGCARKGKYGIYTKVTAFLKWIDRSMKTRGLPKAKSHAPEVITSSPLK
Serine protease 1, sequence (P07477 whole entry): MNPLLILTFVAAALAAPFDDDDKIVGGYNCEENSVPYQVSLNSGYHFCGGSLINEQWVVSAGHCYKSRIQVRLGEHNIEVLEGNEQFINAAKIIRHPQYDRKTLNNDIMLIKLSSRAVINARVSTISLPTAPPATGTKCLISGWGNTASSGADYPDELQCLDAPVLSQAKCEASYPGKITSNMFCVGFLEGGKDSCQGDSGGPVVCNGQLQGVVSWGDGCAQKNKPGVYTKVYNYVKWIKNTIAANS

Structure (SMILES): CC(C)OC(=O)[C@@H]1CN(Cc2ccc(-c3ccccc3S(N)(=O)=O)cc2)O[C@H]1c1cccc(C(=N)N)c1.O=C(O)C(F)(F)F.O=C(O)C(F)(F)F
- half-life [1]: < 60 min
- clearance [2]: > 33.3 mL/min/kg
- Ki (Coagulation factor X): 1.8 nM
- Ki (Serine protease 1): 93 nM

Structure (SMILES): CC(=O)[C@@H]1CN(Cc2ccc(-c3ccccc3S(N)(=O)=O)cc2)C[C@H]1c1cccc(C(=N)N)c1
- Ki (Coagulation factor X): 36 nM
- Ki (Serine protease 1): 200 nM

Structure (SMILES): COC(=O)CN(CCCc1ccc(-c2ccccc2S(N)(=O)=O)cc1)c1cccc(C(=N)N)c1
- Ki (Coagulation factor X): 1.3 nM

Structure (SMILES): N=C(N)c1cccc([C@@H]2CN(Cc3ccc(-c4ccccc4S(N)(=O)=O)cc3)C[C@H]2C(N)=O)c1
- Ki (Coagulation factor X): 150 nM
- Ki (Serine protease 1): 500 nM

Structure (SMILES): COC(=O)[C@H]1CN(Cc2ccc(-c3ccccc3S(N)(=O)=O)cc2)C[C@H]1c1cccc(C(=N)N)c1
- Ki (Coagulation factor X): 170 nM
- Ki (Serine protease 1): > 1600 nM

Structure (SMILES): CN(C)C(=O)[C@@H]1CN(Cc2ccc(-c3ccccc3S(N)(=O)=O)cc2)C[C@H]1c1cccc(C(=N)N)c1
- Ki (Coagulation factor X): 400 nM

Structure (SMILES): CCOC(=O)[C@]1(C)CN(Cc2ccc(-c3ccccc3S(N)(=O)=O)cc2)C[C@H]1c1cccc(C(=N)N)c1
- Ki (Coagulation factor X): 26 nM
- Ki (Serine protease 1): 750 nM

Structure (SMILES): CC(C)OC(=O)[C@@H]1CN(Cc2ccc(-c3ccccc3S(N)(=O)=O)cc2)C[C@H]1c1cccc(C(=N)N)c1.O=C(O)C(F)(F)F.O=C(O)C(F)(F)F
- half-life [1]: < 60 min
- clearance [2]: > 33.3 mL/min/kg
- Ki (Coagulation factor X): 5.8 nM
- Ki (Serine protease 1): 98 nM

Structure (SMILES): N=C(N)c1cccc([C@@H]2CN(Cc3ccc(-c4ccccc4S(N)(=O)=O)cc3)C[C@@H]2C(=O)O)c1
- Ki (Coagulation factor X): 460 nM

Structure (SMILES): COC(=O)[C@H]1CN(Cc2ccc(-c3ccccc3S(N)(=O)=O)cc2)C[C@@H]1c1cccc(C(=N)N)c1
- Ki (Coagulation factor X): 13 nM
- Ki (Serine protease 1): 200 nM

Structure (SMILES): COC(=O)[C@@H]1CN(Cc2ccc(-c3ccccc3S(N)(=O)=O)cc2)O[C@H]1c1cccc(C(=N)N)c1
- Ki (Coagulation factor X): 3.1 nM
- Ki (Serine protease 1): 69 nM

Structure (SMILES): CCCCOC(=O)[C@@H]1CN(Cc2ccc(-c3ccccc3S(N)(=O)=O)cc2)C[C@H]1c1cccc(C(=N)N)c1
- Ki (Coagulation factor X): 12 nM
- Ki (Serine protease 1): 110 nM

Structure (SMILES): N=C(N)c1cccc([C@@H]2CN(Cc3ccc(-c4ccccc4S(N)(=O)=O)cc3)C[C@H]2C(=O)O)c1
- Ki (Coagulation factor X): 600 nM

Structure (SMILES): COC(=O)[C@@H]1CN(Cc2ccc(-c3ccccc3S(N)(=O)=O)cc2)C[C@H]1c1cccc(C(=N)N)c1.O=C(O)C(F)(F)F.O=C(O)C(F)(F)F (stereo in doubt; 10)
- Ki (Coagulation factor X): 4.8 nM
- Ki (Serine protease 1): 63 nM
- ID50 (Oryctolagus cuniculus): >1.4 µM/h/kg

Structure (SMILES): COC(=O)[C@@H]1CN(Cc2ccc(-c3ccccc3S(N)(=O)=O)cc2)C[C@H]1c1cccc(C(=N)N)c1 (stereo in doubt; 15)
- Ki (Coagulation factor X): 3.4 nM
- Ki (Serine protease 1): 52 nM
